How the values were obtained:
Mäusen (ChbI:NMRI) = assay: Scopolamine test: passive avoidance reaction in mice; type: in vivo
Excerpt: Durch den cholinerg-muskarinen Antagonisten Scopolamin wird bei Mensch und Tier eine vorübergehende Störung des Überganges von Inhalten des Kurzzeitgedächtnisses in das Langzeitgedächtnis hervorgerufen. Die auch klinisch bei gesunden Probanden durch Scopolamin auslösbaren, mnestischen Störungen sind in ihrer Ausprägung den psychopathologischen Veränderungen bei Patienten mit organischem Hirnsyndrom ähnlich (Drachman & Leavitt, 1974).
Der Scopolamin-Test wird an Gruppen von jeweils 10 männlichen, nicht nüchternen, naiven Mäusen (ChbI:NMRI; Körpergewicht 35 g) mit Hilfe einer passiven Vermeidereaktion durchgeführt. Das Testgerät besteht aus einer Skinner Box (30 cm × 26 cm × 29 cm) mit einem elektrifizierbaren Gitterboden und einer Plastikplattform (5 cm × 5 cm) an einer Seitenwand. Die Tiere werden einzeln in die Skinner Box gesetzt. Nach einer Orientierungsperiode von 30 sec werden kurze, unterbrochene Stromstöße von ca. 0,8 mA so oft an den Gitterboden der Box gelegt, bis das Tier gelernt hat, daß das Aufsuchen und Verweilen auf der Plastikplattform vor dem Stromstoß Sicherheit gewährt. Tiere, welche dies innerhalb von 120 sec nicht lernen, werden nicht weiter verwendet. Die anderen Mäuse werden unmittelbar nach Erlernen der passiven Vermeidereaktion in drei Gruppen (10 Tiere pro Gruppe) eingeteilt. Eine Gruppe erhält Scopolaminhydrobromid (0,6 mg/kg s.c.) und oral Vehikel (0,5 % Tylose); die zweite Gruppe Scopolaminhydrobromid sowie die zu testende Substanz per os in 0,5 % Tylose und die dritte Gruppe lediglich 0,5 % Tylose p.o.. Eine Stunde nach Application wird jedes Tier einzeln auf die Plattform gesetzt, um das Erinnerungsvermögen an die erlernte Vermeidereaktion zu prüfen. Das Kriterium besteht in der Bestimmung, ob die Maus während mindestens 60 sec. auf der Plattform verbleibt (Ja-Antwort) oder nicht (Nein-Antwort).
Etwa 75% der Tiere, welche ausschließlich mit 0,5 % Tylose behandelt wurden, verbleiben bei der abschließenden Prüfung länger als 60 sec. auf der Plattform: ein Ergebnis, welches als Ausdruck des guten Erinnerungsvermögens an die erlernte Erfahrung gedeutet werden kann. Nach Gabe von Scopolamin und Tylose verbleiben durchschnittlich etwa 25 % der Tiere auf der Plattform; dies zeigt die erhebliche Beeinträchtigung des Erinnerungsvermögens nach Gabe von Scopolamin. Verbindungen der Formel I antagonisieren die Scopolaminwirkung statistisch signifikant. Zum Beispiel ist die oben genannte Verbindung A (N-[N-(1-L-Ethoxycarbonyl-3-phenylpropyl)-L-alanyl]-4,5,6,7-tetrahydro-thieno[2,3-c]-pyridin-7-L-carbonsäure) bei einer Dosis über 0,1 mg/kg p.o. (insbesondere ab 0,5 mg/kg p.o.) wirksam. In Gegensatz dazu sind Captopril bei Dosen von 10 und 30 mg/kg p.o. und Enalapril bei einer Dosis von 5 mg/kg p.o. unwirksam.

[1] = tested on: Ca²⁺-Efflux an der Kaninchen-Aorta; assay: Stimulated Ca2+ efflux in rabbit aorta (method of van Breemen et al. / Casteels and Droogman); type: cell-based; conditions: Oryctolagus cuniculus, read-out: Hemmung des durch 10⁻⁵ mol/l Noradrenalin stimulierten Ca²⁺ Efflux
Excerpt: (§1) 2. In einer weiteren Testanordnung wurde die Wirkung und der Mechanismus der Verbindungen auf die Ca²⁺-Fluxe wie folgt nachgewiesen: Die Bestimmung des Ca²⁺-Efflux wurde nach der Methode von C. van Breemen, P. Aarsonson, R. Loutzenheiser und K. Meisheri (Chest 78, 157S-165S (1980) und von R. Casteels und G.Droogman (J.Physiol. 317, 263-276 (1981)) durchgeführt. Mit dem Ca²⁺-Efflux wird die intrazelluläre Ca²⁺-Freisetzung auf eine Rezeptorstimulation gemessen. Damit ist eine quantitative Beurteilung des Ausmaßes der Rezeptor-vermittelten Wirkung möglich.
(§2) Untersuchungen zum Ca²⁺-Efflux an der Kaninchen-Aorta ergaben, daß die Verbindungen der Formel I den durch Kaliumionen und Noradrenalin stimulierten Ca²⁺-Efflux hemmen.
(§3) Versuche mit der oben genannten Verbindung A (N-[N-(1-L-Ethoxycarbonyl-3-phenylpropyl)-L-alanyl]4,5,6,7-tetrahydro-thieno[2,3-c]pyridin-7-L-carbonsäure ergaben: Die Hemmung des durch 10⁻⁵ mol/l Noradrenalin stimulierten Ca²⁺ Efflux liegt bei 25, 24 und 30 % mit der oben angeführten Verbindung A in den entsprechenden Konzentrationen 10⁻⁶, 10⁻⁵ und 10⁻⁴ mol/l. Das weist auf eine grundsätzlich nur partielle Hemmung hin. Der Ca²⁺-Influx durch K⁺ Depolarisation wird zu 38% gehemmt (10⁻⁵ mol/l der Verbindung A).

[2] = tested on: myocardiale Radiocalciumaufnahme; assay: Inhibition of isoprenaline-induced myocardial radiocalcium uptake in conscious rats after oral dosing (method of Arndts); type: in vivo, Ratten; conditions: Rattus norvegicus, oral dose that inhibits by 50 % the myocardial radiocalcium uptake caused by 30 mg/kg s.c. Isoprenalin, read-out: H50
Excerpt: 1. Bekanntlich ist der myocardiale Ca²⁺ Gehalt ein Maß für die hypoxische bzw. die durch toxische Catecholamindosen hervorgerufene Herzschädigung (Higgins et al. Mol. Cell. Cardiol. 10. 427-438, 1984; Nakanishi et. al., Am. J. Physiol. 242, 437-449, 1982; Fleckenstein A., Vorträge der Erlanger Physiol. Tagung 1970, Edit. Keidel, Springer Verl. Berlin; Heidelberg, New York, 1971). Umgekehrt ist die Inhibition der hypoxischen oder Isoprenalin-bedingten myocardialen Calciumaufnahme ein Maß für die cardioprotektive Effektivität von Calciumantagonisten (Fleckenstein s.o), von Calmodulinhibitoren (Higgins s.o.) und anderen Pharmaka, z.B. Betaadrenolytika (Arndts, Arzneimittelforschung, 25, 1279-1284 (1975)). Die cardioprotektive Wirkung wurde an wachen Ratten nach oraler Wirkstoffgabe anhand der von Arndts (s.o.) beschriebenen Methoden festgestellt und die Wirkungsstärke der Testsubstanzen als H₅₀-Werte angegeben; dieser Wert entspricht der Dosis, die die durch eine Gabe von 30 mg/kg s.c. Isoprenalin bedingte myocardiale Radiocalciumaufnahme bis 50 % hemmt. Hier erwiesen sich die vorliegenden Verbindungen als wirksamer als die bekannten Handelsprodukte Captopril und Enalapril. Die Ergebnisse sind in Tabelle I dargestellt.

[3] = tested on: ischämischen Langendorff-Herzen; assay: Ischaemic Langendorff heart, recovery of regular contractions after reperfusion (in vitro or ex vivo); conditions: ischaemic Langendorff hearts
Excerpt: Hieraus läßt sich eine protektive Wirksamkeit der Substanzen auf Herzschädigungen während Hypoxie oder Ischämie ableiten.

[4] = tested on: Ca²⁺-Influx durch K⁺ Depolarisation; assay: Ca2+ influx by K+ depolarisation; type: cell-based, Kaninchen; conditions: Oryctolagus cuniculus; compound 10⁻⁵ mol/l; read-out: Hemmung des Ca²⁺-Influx durch K⁺ Depolarisation
Excerpt: as §1, §2, §3

SMILES	ED50 [2]	Wiederauftreten regelmäßiger Kontraktionen nach Reperfusion [3]	further results
CCOC(=O)[C@H](CCc1ccccc1)N[C@@H](C)C(=O)N1CCc2ccsc2[C@H]1C(=O)O [A, N-[N-(1-L-Ethoxycarbonyl-3-phenylpropyl)-L-alanyl]-4,5,6,7-tetrahydro-thieno[2,3-c]pyridin-7-L-carbonsäure]	0.63 mg/kg	zeitliche Verkürzung des Wiederauftretens regelmäßiger Kontraktionen	Antagonismus der Scopolaminwirkung (Mäusen (ChbI:NMRI); dose above 0,1 mg/kg p.o. (especially from 0,5 mg/kg p.o.)): wirksam; inhibition at 100 µM ([1]; compound 10⁻⁴ mol/l): 30%; inhibition at 10 µM ([1]; compound 10⁻⁵ mol/l): 24%; inhibition at 1 µM ([1]; compound 10⁻⁶ mol/l): 25%; inhibition at 10 µM [4]: 38%
CC(CS)C(=O)N1CCC[C@@H]1C(=O)O (stereo partly drawn) [Captopril, D-2-Methyl-3-mercaptopropanoyl-L-prolin]	1.52 mg/kg	deutlich schwächer	Antagonismus der Scopolaminwirkung (Mäusen (ChbI:NMRI); 10 mg/kg p.o.): unwirksam; Antagonismus der Scopolaminwirkung (Mäusen (ChbI:NMRI); 30 mg/kg p.o.): unwirksam
C[C@H](N[C@@H](CCc1ccccc1)C(=O)O)C(=O)N1Cc2nc[nH]c2C[C@H]1C(=O)O [D, N-[N-(1-L-Carboxy-3-phenylpropyl)-L-alanyl]-4,5,6,7-tetrahydro-1H-imidazo[4,5-c]pyridin-6-L-carbonsäure]	1.32 mg/kg		
C[C@H](N[C@@H](CCc1ccccc1)C(=O)O)C(=O)N1Cc2ccsc2C[C@H]1C(=O)O [E, N-[N-(1-L-Carboxy-3-phenylpropyl)-L-alanyl]-4,5,6,7-tetrahydro-thieno[3,2-c]pyridin-6-L-carbonsäure]	1.1 mg/kg		
CCOC(=O)[C@H](CCc1ccccc1)N[C@@H](C)C(=O)N1CCC[C@H]1C(=O)O [Enalapril, 1-N-[(S)-1-Ethoxycarbonyl-3-phenylpropyl]-S-alanyl-S-prolin]	1.59 mg/kg	deutlich schwächer	Antagonismus der Scopolaminwirkung (Mäusen (ChbI:NMRI); 5 mg/kg p.o.): unwirksam
